In brackets after ≈: the same amount, converted by molar mass.
Assay: Solubility determination of vrx and vrx-co-crystals in water
Assay type: physicochemical
Conditions: 37° C.
Experimental: Solubility determinations of the vrx (free drug substance), the vrx-fumaric acid co-crystal and the vrx-L-tartaric acid co-crystal described in the below comparative example are carried out as follows. To 20 mg of a solid sample, 5.0 ml water is added and the mixture is placed on a laboratory shaker at 500 rpm at 37° C. After 24 hours, a small sample of about 1.0 ml is recovered with a syringe and filtered through a 0.1 micrometer PVDF Millipore filtration unit. This sample is appropriately diluted and the concentration is determined by HPLC.

| solubility at 24 h (thermodynamic from solid, equilibration time 24 h, 20 mg solid in 5.0 ml, HPLC, value refers to Voriconazole) [µg/mL] | SMILES | aqueous solubility higher than the free drug substance and the L-tartaric acid co-crystal (24 h, relative to table 4 comparators) | Solubility of Voriconazole (equilibration time 24 h, 20 mg solid in 5.0 ml, HPLC, value refers to Voriconazole) [µg/mL] |
| --- | --- | --- | --- |
|  | CC(c1ncncc1F)C(O)(Cn1cncn1)c1ccc(F)cc1F.O=C(O)C=CC(=O)O (stereo not drawn) [Co-crystal with fumaric acid] | about 30% | 1300 |
| 1010 (≈ 2890 µM) | C[C@@H](c1ncncc1F)[C@](O)(Cn1cncn1)c1ccc(F)cc1F [Voriconazole free drug, (2R,3S)-2-(2,4-difluorophenyl)-3-(5-fluoropyrimidin-4-yl)-1-(1H-1,2,4-triazol-1-yl)butan-2-ol, reference compound] |  |  |

Source: patent publication US20150087657A1, “MULTICOMPONENT CRYSTALLINE SYSTEM OF VORICONAZOLE WITH FUMARIC ACID” (BASF SE, priority 2011, published 2015)
